Results from ChEMBL document CHEMBL3233007, “Prenylated coumarins: natural phosphodiesterase-4 inhibitors from Toddalia asiatica” (J Nat Prod, 2014).

molecular target: 3',5'-cyclic-AMP phosphodiesterase 4D (Homo sapiens, UniProt Q08499); test: Inhibition of human PDE4D2 catalytic domain (86 to 413aa) expressed in Escherichia coli strain BL21 after 15 mins by liquid scintillation counting in presence of [3H]-cAMP
Sequence (Q08499 whole entry, the tested form may be a part): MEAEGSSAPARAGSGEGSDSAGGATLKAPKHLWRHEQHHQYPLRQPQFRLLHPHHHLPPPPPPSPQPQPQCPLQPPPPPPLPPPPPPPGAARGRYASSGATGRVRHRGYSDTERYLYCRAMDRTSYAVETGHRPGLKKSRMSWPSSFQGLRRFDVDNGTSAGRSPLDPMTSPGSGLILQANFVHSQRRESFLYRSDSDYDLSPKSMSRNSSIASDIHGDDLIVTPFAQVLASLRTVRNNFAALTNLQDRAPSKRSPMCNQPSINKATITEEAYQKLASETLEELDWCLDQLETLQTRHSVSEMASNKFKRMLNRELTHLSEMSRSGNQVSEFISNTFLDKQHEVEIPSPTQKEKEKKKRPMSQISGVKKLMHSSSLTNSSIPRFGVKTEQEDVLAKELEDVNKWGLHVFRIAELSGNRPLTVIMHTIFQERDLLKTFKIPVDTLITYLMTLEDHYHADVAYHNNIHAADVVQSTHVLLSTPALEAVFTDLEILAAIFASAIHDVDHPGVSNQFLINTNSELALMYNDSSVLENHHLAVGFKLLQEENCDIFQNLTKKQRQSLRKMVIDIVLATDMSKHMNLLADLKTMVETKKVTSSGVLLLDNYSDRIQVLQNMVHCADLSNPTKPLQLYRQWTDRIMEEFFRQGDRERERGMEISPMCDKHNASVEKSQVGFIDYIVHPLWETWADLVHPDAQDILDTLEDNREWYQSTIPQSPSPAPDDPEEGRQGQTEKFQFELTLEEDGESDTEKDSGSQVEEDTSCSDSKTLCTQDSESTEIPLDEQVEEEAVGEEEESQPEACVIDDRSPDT

Row | Compound | IC50 [µM]
1 | COc1cc2ccc(=O)oc2c2c1OC(C)(C)CC2 | 1.53
2 | COc1cc(OC)c2ccc(=O)oc2c1CCC(C)C | 10.2
3 | COC1=CC(=O)c2cc(C)cc(-c3c(OC)cc(OC)c4ccc(=O)oc34)c2C1=O | 5.51
4 | CC1(C)C=Cc2c(c(O)cc3ccc(=O)oc23)O1 | 2.38
5 | COc1cc2c(c3oc(=O)ccc13)CCC(C)(C)O2 | 2.2
6 | COc1cc2oc(=O)ccc2c(OC)c1C[C@H](OC(=O)[C@]1(O)C[C@@H](O)[C@@H](O)[C@H](OC(=O)/C=C/c2ccc(O)c(O)c2)C1)C(C)(C)O | 16.7
7 | COc1cc2oc(=O)ccc2c(OC)c1CC=C(C)C | 9.98
8 | COc1cc2c(c3oc(=O)ccc13)C=CC(C)(C)O2 | 1.87
9 | COc1cc(OC)c2ccc(=O)oc2c1CC=C(C)C | 6.82
10 | COc1cc(OC)c2ccc(=O)oc2c1/C=C/[C@H]1C[C@@H](C=C(C)C)c2c(c3ccccc3n(C)c2=O)O1 | 0.14
11 | COc1cc2oc(=O)ccc2c(OC)c1CCC(C)C | 11.5
12 | COc1cc(O)c(/C=C/C(=O)O[C@@H](Cc2c(OC)cc3oc(=O)ccc3c2OC)C(C)(C)O)c(OC)c1CC=C(C)C | 7.81
